Laboratory results: PMC6937300, “A novel phytocannabinoid isolated from Cannabis sativa L. with an in vivo cannabimimetic activity higher than Δ^9-tetrahydrocannabinol: Δ^9-Tetrahydrocannabiphorol” (Scientific Reports, 2019)

Target: T1, human CB1 receptor (Homo sapiens, UniProt P21554)
T1 construct: gene CNR1
T1 sequence (P21554 whole entry): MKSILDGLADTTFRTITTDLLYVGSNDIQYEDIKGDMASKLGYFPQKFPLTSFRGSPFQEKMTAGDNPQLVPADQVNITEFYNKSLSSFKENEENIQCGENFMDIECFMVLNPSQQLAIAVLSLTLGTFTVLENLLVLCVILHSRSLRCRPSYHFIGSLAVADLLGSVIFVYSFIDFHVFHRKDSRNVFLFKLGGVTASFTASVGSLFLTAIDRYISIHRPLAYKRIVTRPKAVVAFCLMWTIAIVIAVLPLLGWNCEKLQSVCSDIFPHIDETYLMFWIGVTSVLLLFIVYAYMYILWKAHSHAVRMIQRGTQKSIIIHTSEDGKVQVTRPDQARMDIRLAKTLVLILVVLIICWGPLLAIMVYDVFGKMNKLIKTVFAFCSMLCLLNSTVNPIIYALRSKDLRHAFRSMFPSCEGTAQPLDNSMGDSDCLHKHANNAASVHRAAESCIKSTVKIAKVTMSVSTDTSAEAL

In the case of `CCCCCCCc1cc(O)c2c(c1)OC(C)(C)[C@@H]1CCC(C)=C[C@@H]21` [(-)-trans-Δ^9-THCP, (6aR,10aR)-3-heptyl-6,6,9-trimethyl-6a,7,8,10a-tetrahydro-6H-benzo[c]chromen-1-ol], the Ki is reported as 1.2 nM.
